For 3 compounds, Activity results are on record in ChEMBL document CHEMBL1142232, “Inhibition of spinal microglial cathepsin S for the reversal of neuropathic pain” (Proc Natl Acad Sci U S A, 2007).

Series [1] has as its system Rattus norvegicus. The series is described as follows: Inhibition of rat recombinant cathepsin S-induced hyperalgesia in naive Wistar rat at 50 nmol administered 30 mins before cathepsin S challenge. The series is classed as functional, organism-based.
The species entered for series [2] is Rattus norvegicus. Description: Inhibition of rat recombinant cathepsin S-induced hyperalgesia in Wistar rat at 50 ug. It is filed as functional, organism-based.
The test system of series [3] is Rattus norvegicus. The series is described as follows: Analgesic activity in intrathecally dosed Wistar rat partial ligation of sciatic nerve neuropathic pain model assessed as attenuation of allodynia at 50 nmol after 7 days. It is filed as functional, organism-based.
The species entered for series [4] is Rattus norvegicus. The series is described as follows: Reduction of microglial activation in Wistar rat partial ligation of sciatic nerve neuropathic pain model at 30 nmol. It is filed as functional, organism-based.
Series [5] concerns Rattus norvegicus. The series is described as follows: Antinociceptive activity in intrathecally dosed Wistar rat partial ligation of sciatic nerve 3-day neuropathic pain model assessed as alteration of mechanical allodynia at 50 nmol. The series is classed as functional, organism-based.
The species entered for series [6] is Rattus norvegicus. Description: Toxicity in Wistar rat assessed as effect on motor behavior by rotarod test. The series is classed as organism-based. The following applies: in vivo.
Series [7] has as its system Rattus norvegicus. The series is described as follows: Effect on contralateral mechanical thresholds in intrathecally dosed Wistar rat partial ligation of sciatic nerve neuropathic pain model. The series is classed as functional, organism-based.
Series [8] relates to Rattus norvegicus. Description: Analgesic activity in intrathecally dosed Wistar rat partial ligation of sciatic nerve neuropathic pain model assessed as attenuation of allodynia at 50 nmol after 14 days. The series is classed as functional, organism-based.
The species entered for series [9] is Rattus norvegicus. Description: Effect on NMDA-induced hyperalgesia in Wistar rat. The series is classed as functional, organism-based.
For series [10], the species on record is Rattus norvegicus. The series is described as follows: Analgesic activity in Wistar rat partial ligation of sciatic nerve model of neuropathic pain assessed as reversal of allodynia at 30 nmol after 7 days. It is filed as functional, organism-based.
Series [11] concerns Rattus norvegicus. Description: Analgesic activity in intrathecally dosed Wistar rat partial ligation of sciatic nerve neuropathic pain model assessed as reduction of mechanical hyperalgesia at 50 nmol after 14 days. It is filed as functional, organism-based.
Series [12] concerns Rattus norvegicus. The series is described as follows: Analgesic activity in intrathecally dosed Wistar rat partial ligation of sciatic nerve neuropathic pain model assessed as reduction of mechanical hyperalgesia at 10 nmol after 14 days. It is filed as functional, organism-based.
Series [13] is filed under the species Rattus norvegicus. The series is described as follows: Effect on sarcosine-induced hyperalgesia in Wistar rat. The series is classed as functional, organism-based.
The species named for series [14] is Rattus norvegicus. Description: Analgesic activity in Wistar rat partial ligation of sciatic nerve model of neuropathic pain assessed as reversal of allodynia at 30 nmol after 3 to 5 days. The series is classed as functional, organism-based.

Activity calls are given as the source filed them. Where a SMILES comes first, the peptide text is derived from it. [ ]: non-standard residue; d: D form. Oic = O=C(O)[C@@H]1C[C@@H]2CCCC[C@@H]2N1; Hyp = O=C(O)[C@@H]1C[C@@H](O)CN1; dTic = O=C(O)[C@H]1Cc2ccccc2CN1; 2Thi = N[C@@H](Cc1cccs1)C(=O)O

Consider `N=C(N)NCCC[C@@H](N)C(=O)N[C@@H](CCCNC(=N)N)C(=O)N1CCC[C@H]1C(=O)N1C[C@H](O)C[C@H]1C(=O)NCC(=O)N[C@@H](Cc1cccs1)C(=O)N[C@@H](CO)C(=O)N1Cc2ccccc2C[C@@H]1C(=O)N1[C@H](C(=O)O)C[C@@H]2CCCC[C@@H]21` (H-[dR]RP[Hyp]G[2Thi]S[dTic][Oic]-OH), for which the outcome with Rattus norvegicus [1] and in the series filed under Rattus norvegicus [2] was inactive.
With `N=C(N)NCCC[C@@H](N)C(=O)N[C@@H](CCCNC(=N)N)C(=O)N1CCC[C@H]1C(=O)N1C[C@H](O)C[C@H]1C(=O)NCC(=O)N[C@@H](Cc1cccs1)C(=O)N[C@@H](CO)C(=O)N1Cc2ccccc2C[C@@H]1C(=O)N1[C@H](C(=O)N[C@@H](CCCNC(=N)N)C(=O)O)C[C@@H]2CCCC[C@@H]21`, the result in the series on Rattus norvegicus [1] and in the series listed under Rattus norvegicus [2] was inactive.
Take `CC(C)C[C@@H](NC(=O)N1CCOCC1)C(=O)N[C@@H](/C=C/S(=O)(=O)c1ccccc1)CCc1ccccc1`: the outcome in the series on Rattus norvegicus [3], in the series filed under Rattus norvegicus [4], in the series on Rattus norvegicus [8], in the series filed under Rattus norvegicus [10], with Rattus norvegicus [11] and with Rattus norvegicus [12] was Active. Besides, the outcome with Rattus norvegicus [5], with Rattus norvegicus [7], in the series on Rattus norvegicus [1], in the series listed under Rattus norvegicus [9], in the series listed under Rattus norvegicus [13] and in the series listed under Rattus norvegicus [14] was inactive. Also, in the series listed under Rattus norvegicus [6], the Activity entry is “Non-toxic”.
